Experiments:
honeybees = test system: honeybees; set-up: method as in Iwasa et al. (2004); details: acute dermal exposure; ref Iwasa et al. (2004); cited from earlier work
Folsomia candida [1] = assay: Literature data on toxicity to Folsomia candida in soil; format: in vivo; details: 28-day, artificial soil; 10% OM (sphagnum peat), pure; recalculated with logistic dose-response model from figures; ref Reynolds (2008)
Description: The LC50 and EC50 values for the toxicity of imidacloprid found in this study are within the range set by previous studies in our lab (Table S3). The values reported by Idinger ([2002]) for the toxicity of imidacloprid in the commercial formulation Confidor 70WP, tested in artificial soil, also are in the same range. Some LC50s reported in the literature, however, are somewhat higher, which could be explained by several factors. […] The use of an artificial soil with higher OM contents probably also explains the somewhat higher LC50 and EC50 values reported by Reynolds ([2008]). […] For two commercial formulations, EFSA ([2008]) found lower NOECs of 0.2–0.32 mg a.s./kg. Laboratory conditions such as temperature and light/dark regime may affect the metabolism of test animals, leading to differential toxicity of imidacloprid.
Table S3. Overview of data on the toxicity of imidacloprid and thiacloprid to Folsomia candida. All LC50 and EC50 values are in mg/kg dry soil and all tests were carried out on a 28-day exposure period. OM = organic matter.

[2] = Chemical analysis of concentrations in test soil (LC-MS) and degradation half-life (DT50); format: physicochemical
Procedure: Soil samples for chemical analysis of imidacloprid and thiacloprid in the test soil were taken at the start of the exposure of each new generation.
The analytical method to determine actual imidacloprid and thiacloprid concentrations in the test soils followed the principles of the QuEChERS extraction method modified from Anastasiades et al. ([2003]) and Payá et al. ([2007]). Briefly, the procedure used was as follows: approx. 1 g moist soil was taken for low concentration treatments (<1 mg/kg), and 50 µL internal standard (Imidacloprid-d4 and Thiacloprid-d4, 250 µg/L) was added. The sample was shaken for 20 min at 250 rpm with 2 mL methanol and centrifuged for 3 min at 1500 rpm. The methanol phase was passed through a granular Na2SO4 column, evaporated till dryness and the residue taken up in 3 mL acetonitrile. For high concentration samples (>1 mg/kg), the soil was first shaken with methanol and centrifuged. Subsequently an aliquot of 100 µL was taken and together with 50 µL internal standard (Imidacloprid-d4 and Thiacloprid-d4, 250 µg/L) added to 1 mL methanol, passed through a granular Na2SO4 column, evaporated to dryness and taken up in 3 mL acetonitrile. For clean-up, the acetonitrile extract was added to a tube filled with Supel QuE (C18 150 mg, PSA 150 mg, MgSO4 900 mg, Sigma Aldrich), shaken by hand for 2 min and centrifuged for 3 min at 3000 rpm. The supernatant was evaporated till dryness under gentle nitrogen stream and the residue taken up in 200 µL of a water-methanol (9/1) mixture.
Extracts were analyzed using LC-MS and quantified by isotope dilution (imidacloprid-d4 and thiacloprid-d4). The neonicotinoids were separated on a 100 × 2.1 mm, 2.6 µm Kinetex XB-C18 column (Phenomenex), applying a gradient of 5 mM ammonium formate pH 4 buffer and methanol, at a flow rate of 0.3 mL/min. The LC system (Agilent 1200 series) was coupled to a 6410 triple quadrupole MS (Agilent) using electrospray ionization (ESI) with data acquisition in positive ion mode. The transitions for imidacloprid were 256.1 > 175/209 (quantifier/qualifier) and for imidacloprid-d4 260 > 179. For thiacloprid the transitions were253.1 > 126/90 (quantifier/qualifier) with 257 > 126 for thiacloprid-d4.
Using data on the imidacloprid and thiacloprid concentrations measured at different times after spiking the soil in the multigeneration test, half-life (DT50) values were estimated assuming first order degradation kinetics. The equation C = C0 * e^−k*t was fitted to the data, with C = concentration at time t in days, C0 is concentration at t = 0 and k = degradation rate constant (day^−1). DT50 was derived as ln(2) / k.

Folsomia candida [3] = details: cited from earlier work
[4] = 28-day exposure, Lufa 2.2, ~3.0% OM, pure, ref De Lima e Silva et al. (submitted)
[5] = artificial soil, 10% OM, based on regression analysis, ref Reynolds (2008)

O=[N+]([O-])NC1=NCCN1Cc1ccc(Cl)nc1 [Imidacloprid, imidacloprid]
times more toxic than thiacloprid (honeybees): about 800 times
EC50, recalculated (Folsomia candida [1]): 0.26^& mg/kg dry soil
LC50, recalculated (Folsomia candida [1]): 0.86^& mg/kg dry soil
concentration, % of the nominal concentration ([2]; LUFA 2.2 soil, after 28 days of incubation at 20 °C, all concentrations analysed): 68.1–83.8%
recovery, % of the nominal concentration ([2]; LUFA 2.2 soil, start of F0 exposure (T=0)): 77.6–89.9%
concentration measured in soil ([2]; T=0, nominal 0.01, mean ± SD (n=3)): 0.0078±0.0028 mg/kg dry soil
concentration measured in soil ([2]; T=0, nominal 0.1, mean ± SD (n=3)): 0.082±0.0018 mg/kg dry soil
concentration measured in soil ([2]; T=0, nominal 0.3, mean ± SD (n=3)): 0.27±0.014 mg/kg dry soil
concentration measured in soil ([2]; T=0, nominal 1.0, mean ± SD (n=3)): 0.86±0.022 mg/kg dry soil
concentration measured in soil ([2]; T=28 d, nominal 0.1, mean ± SD (n=3)): 0.068±0.0025 mg/kg dry soil
concentration measured in soil ([2]; T=28 d, nominal 0.3, mean ± SD (n=3)): 0.23±0.0092 mg/kg dry soil
concentration measured in soil ([2]; T=28 d, nominal 1.0, mean ± SD (n=3)): 0.84±0.083 mg/kg dry soil
half-life ([2]; pH 5.4): ≥ 125 days
EC50 (Folsomia candida [3]; [4]): 0.097-0.30 mg/kg dry soil
LC50 (Folsomia candida [3]; [4]): 0.20-0.65 mg/kg dry soil
NOEC (Folsomia candida [3]; active substance, ref EFSA (2008)): 1.25 mg/kg dry soil
EC50 reported by Reynolds (Folsomia candida [3]; [5]): 0.60 mg/kg
LC50 reported by Reynolds (Folsomia candida [3]; [5]): 1.38 mg/kg

— PMC5397431, “Multigeneration toxicity of imidacloprid and thiacloprid to Folsomia candida” (Ecotoxicology (London, England), 2017)
